Source: article PMC3524753, “SU11652 Inhibits tyrosine kinase activity of FLT3 and growth of MV-4-11 cells” (Journal of Hematology & Oncology, 2012)
Substitutions are numbered along the chain they refer to.

Experiments:
Test in all cases: in vitro kinase assay with GST-FLT3S substrate, anti-phosphotyrosine immunoblot
Assay type in all cases: biochemical
[1] = biological target: T1, FLT3 (FMS-like tyrosine kinase 3) (Homo sapiens, UniProt P36888, D835Y)
T1 construct: catalytic domain of FLT3 D835Y
T1 sequence (P36888 564-993 D835Y limits assumed): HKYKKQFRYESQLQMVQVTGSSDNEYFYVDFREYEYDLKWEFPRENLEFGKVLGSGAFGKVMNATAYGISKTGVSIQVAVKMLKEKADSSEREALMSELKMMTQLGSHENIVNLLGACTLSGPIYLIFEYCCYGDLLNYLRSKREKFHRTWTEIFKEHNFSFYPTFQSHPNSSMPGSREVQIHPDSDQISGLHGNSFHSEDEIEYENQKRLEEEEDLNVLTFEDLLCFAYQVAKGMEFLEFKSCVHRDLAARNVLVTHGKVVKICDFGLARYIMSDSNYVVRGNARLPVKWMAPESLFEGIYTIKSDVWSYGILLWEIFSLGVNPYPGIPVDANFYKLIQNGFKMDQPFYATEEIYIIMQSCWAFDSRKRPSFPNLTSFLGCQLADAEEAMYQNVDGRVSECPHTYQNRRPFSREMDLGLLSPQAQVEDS

[2] = biological target: T2, FLT3 (FMS-like tyrosine kinase 3) (Homo sapiens, UniProt P36888, D835H)
T2 construct: catalytic domain of FLT3 D835H
T2 sequence (P36888 564-993 D835H limits assumed): T1 sequence (P36888 564-993 D835Y limits assumed) with Y272H

[3] = biological target: T3, FLT3 (FMS-like tyrosine kinase 3) (Homo sapiens, UniProt P36888)
T3 construct: catalytic domain of wild type FLT3
T3 sequence (P36888 564-993 limits assumed): T1 sequence (P36888 564-993 D835Y limits assumed) with Y272D

With `CCN(CC)CCNC(=O)c1c(C)[nH]c(/C=C2\C(=O)Nc3ccc(Cl)cc32)c1C` [SU11652] the IC50 [1] was 16 nM, the IC50 [2] was 32 nM and the IC50 [3] was roughly 1.5 nM.
